From PubChem BioAssay AID248 (DTP/NCI, 2004)
Values joined by “and” are separate entries in the source; they are usually repeats but may differ in a detail not shown here. Equal values may be shown once. Toxic doses and inconclusive results are not listed.

Tested on: L1210 leukemia ip in BDF1 mice, survival T/C
Experiment: NCI In Vivo Anticancer Drug Screen. Data for tumor model L1210 Leukemia (intraperitoneal) in B6D2F1 (BDF1) mice
Settings: endpoint: mean survival time, higher = longer survival
Outline: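 Each compound was tested against a transplantable tumor grown in mice. The endpoint was survival, with treated animals benchmarked against vehicle controls as a simple ratio.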

[1] = dose: 25.0 mg/kg/injection, schedule: Q01DX009 (ip), vehicle: saline with Tween-80
[2] = dose: 100.0 mg/kg/injection, schedule: Q04DX003 (ip), vehicle: Klucel (hydroxypropylcellulose) (HPC)
[3] = dose: 200.0 mg/kg/injection, schedule: Q04DX003 (ip), vehicle: Klucel (hydroxypropylcellulose) (HPC)
[4] = dose: 100.0 mg/kg/injection, schedule: Q01DX009 (ip), vehicle: Klucel (hydroxypropylcellulose) (HPC)
[5] = dose: 200.0 mg/kg/injection, schedule: Q01DX009 (ip), vehicle: Klucel (hydroxypropylcellulose) (HPC)
[6] = dose: 400.0 mg/kg/injection, schedule: Q01DX009 (ip), vehicle: Klucel (hydroxypropylcellulose) (HPC)
[7] = dose: 400.0 mg/kg/injection, schedule: Q04DX003 (ip), vehicle: Klucel (hydroxypropylcellulose) (HPC)
[8] = dose: 100.0 mg/kg/injection, schedule: Q01DX009 (ip), vehicle: saline with Tween-80
[9] = dose: 100.0 mg/kg/injection, schedule: Q04DX003 (ip), vehicle: saline with Tween-80
[10] = dose: 200.0 mg/kg/injection, schedule: Q01DX009 (ip), vehicle: saline with Tween-80
[11] = dose: 200.0 mg/kg/injection, schedule: Q04DX003 (ip), vehicle: saline with Tween-80
[12] = dose: 400.0 mg/kg/injection, schedule: Q04DX003 (ip), vehicle: saline with Tween-80
[13] = dose: 100.0 mg/kg/injection, schedule: Q01DX009 (ip), vehicle: saline
[14] = dose: 200.0 mg/kg/injection, schedule: Q01DX009 (ip), vehicle: saline
[15] = dose: 25.0 mg/kg/injection, schedule: Q04DX002 (ip), vehicle: saline with Tween-80
[16] = dose: 50.0 mg/kg/injection, schedule: Q04DX002 (ip), vehicle: saline with Tween-80
[17] = dose: 50.0 mg/kg/injection, schedule: Q01DX009 (ip), vehicle: saline

CCCCC#CC(=O)OC
T/C (dose: 75.0 mg/kg/injection, schedule: Q01DX001 (ip), vehicle: other): 106 % of control
T/C (dose: 150.0 mg/kg/injection, schedule: Q01DX001 (ip), vehicle: other): 97 % of control
T/C (dose: 300.0 mg/kg/injection, schedule: Q01DX001 (ip), vehicle: other): 101 % of control

Cc1c(O)ccc(C(=O)CCl)c1O
T/C (dose: 12.0 mg/kg/injection, schedule: Q01DX009 (ip), vehicle: saline with Tween-80): 100 % of control
T/C [1]: 102 % of control and 107 % of control
T/C [2]: 106 % of control
T/C [3]: 102 % of control

CCCCOCCOP(OCCOCCCC)OCCOCCCC
T/C [4]: 101 % of control
T/C [5]: 102 % of control
T/C [6]: 90 % of control

Nc1ncnc(N)c1NC(=O)c1cc(OCc2ccccc2)cc(OCc2ccccc2)c1
T/C (dose: 100.0 mg/kg/injection, schedule: Q04DX003 (ip), vehicle: DMSO): 94 % of control
T/C (dose: 200.0 mg/kg/injection, schedule: Q04DX003 (ip), vehicle: DMSO): 102 % of control
T/C (dose: 400.0 mg/kg/injection, schedule: Q04DX003 (ip), vehicle: DMSO): 86 % of control

NC(=S)N/N=C1/CCc2ccccc21
T/C (dose: 100.0 mg/kg/injection, schedule: Q01DX001 (ip), vehicle: carboxymethylcellulose (CMC)): 113 % of control

Nc1nc(N)c2nc(CNc3ccc(C(=O)NC(CCCCC(=O)O)C(=O)O)cc3)cnc2n1 (centres undefined)
T/C (dose: 20.0 mg/kg/injection, schedule: Q01DX009 (ip), vehicle: sodium bicarbonate): 157 % of control

COc1ccc2c(c1)c(CC(=O)O)c(Br)n2Cc1ccccc1
T/C (dose: 100.0 mg/kg/injection, schedule: Q01DX001 (ip), vehicle: Klucel (hydroxypropylcellulose) (HPC)): 112 % of control
T/C [2]: 98 % of control
T/C (dose: 200.0 mg/kg/injection, schedule: Q01DX001 (ip), vehicle: Klucel (hydroxypropylcellulose) (HPC)): 112 % of control
T/C [3]: 100 % of control
T/C (dose: 400.0 mg/kg/injection, schedule: Q01DX001 (ip), vehicle: Klucel (hydroxypropylcellulose) (HPC)): 101 % of control
T/C [7]: 102 % of control

CCCCNC(=O)NNC(=O)OCC
T/C (dose: 100.0 mg/kg/injection, schedule: Q04DX003 (ip), vehicle: saline): 100 % of control
T/C (dose: 200.0 mg/kg/injection, schedule: Q04DX003 (ip), vehicle: saline): 100 % of control
T/C (dose: 400.0 mg/kg/injection, schedule: Q04DX003 (ip), vehicle: saline): 100 % of control

CCOC(=O)C1CC(C)=C(C)CC1C(=O)O (centres undefined)
T/C [8]: 87 % of control
T/C [9]: 98 % of control
T/C [10]: 97 % of control
T/C [11]: 90 % of control
T/C (dose: 400.0 mg/kg/injection, schedule: Q01DX009 (ip), vehicle: saline with Tween-80): 92 % of control
T/C [12]: 98 % of control

O/N=C/c1cnccn1
T/C (dose: 100.0 mg/kg/injection, schedule: Q01DX001 (ip), vehicle: saline): 105 % of control
T/C (dose: 200.0 mg/kg/injection, schedule: Q01DX001 (ip), vehicle: saline): 105 % of control

Cc1ccc(NC(=O)OCCOc2ccc(Cl)cc2Cl)cc1[N+](=O)[O-]
T/C (dose: 50.0 mg/kg/injection, schedule: Q01DX009 (ip), vehicle: saline with Tween-80): 97 % of control
T/C [8]: 104 % of control
T/C [10]: 104 % of control

O=C(O)c1cscc1-c1c2ccccc2cc2ccccc12
T/C [9]: 88 % of control
T/C [11]: 91 % of control
T/C [12]: 88 % of control

O=C(O)CNC1CCCCC1
T/C [13]: 96 % of control
T/C (dose: 100.0 mg/kg/injection, schedule: Q04DX002 (ip), vehicle: saline): 97 % of control
T/C [14]: 89 % of control
T/C (dose: 200.0 mg/kg/injection, schedule: Q04DX002 (ip), vehicle: saline): 102 % of control
T/C (dose: 400.0 mg/kg/injection, schedule: Q01DX009 (ip), vehicle: saline): 96 % of control
T/C (dose: 400.0 mg/kg/injection, schedule: Q04DX002 (ip), vehicle: saline): 97 % of control

CCOC(=O)C(CCC(C)=O)C1=NC(C)(C)CC(C)O1 (centres undefined)
T/C (dose: 100.0 mg/kg/injection, schedule: Q01DX009 (ip), vehicle: saline sonified): 102 % of control
T/C (dose: 200.0 mg/kg/injection, schedule: Q01DX009 (ip), vehicle: saline sonified): 109 % of control
T/C (dose: 400.0 mg/kg/injection, schedule: Q01DX009 (ip), vehicle: saline sonified): 98 % of control

C[CH2][Pb]([CH2]C)([CH2]C)[N]1C(=O)c2c(Cl)c(Cl)c(Cl)c(Cl)c2C1=O
T/C (dose: 12.5 mg/kg/injection, schedule: Q04DX002 (ip), vehicle: Klucel (hydroxypropylcellulose) (HPC)): 107 % of control

CCOc1n[n+]([O-])c(Cl)c(C)c1[N+](=O)[O-]
T/C [15]: 96 % of control
T/C [16]: 92 % of control
T/C (dose: 100.0 mg/kg/injection, schedule: Q04DX002 (ip), vehicle: saline with Tween-80): 96 % of control

CCCC(/C=N\NC(=O)c1ccc[n+](C)c1)CC (centres undefined)
T/C [17]: 103 % of control
T/C [13]: 103 % of control
T/C [14]: 100 % of control

O=C1C(C(O)c2ccccc2)SC(c2ccccc2)N1c1ccccc1 (centres undefined)
T/C [4]: 97 % of control
T/C [2]: 90 % of control
T/C [5]: 101 % of control
T/C [3]: 94 % of control
T/C [6]: 95 % of control
T/C [7]: 93 % of control

O=C(OC1CCCCCCC1)C(F)(F)F
T/C [4]: 98 % of control
T/C [2]: 104 % of control
T/C [5]: 101 % of control
T/C [3]: 105 % of control
T/C [6]: 92 % of control
T/C [7]: 105 % of control

NC(=S)N/N=C\c1ncnc2nc[nH]c12
T/C (dose: 0.5 mg/kg/injection, schedule: Q03HX024 (ip), vehicle: saline): 111 % of control
T/C (dose: 1.0 mg/kg/injection, schedule: Q03HX024 (ip), vehicle: saline): 121 % of control
T/C (dose: 5.0 mg/kg/injection, schedule: Q01DX001 (ip), vehicle: saline): 114 % of control
T/C (dose: 8.0 mg/kg/injection, schedule: Q03HX024 (ip), vehicle: saline): 150 % of control
T/C (dose: 10.0 mg/kg/injection, schedule: Q01DX001 (ip), vehicle: saline): 118 % of control
T/C (dose: 20.0 mg/kg/injection, schedule: Q01DX001 (ip), vehicle: saline): 114 % of control

C=CCOc1cccc(C(C)(C)C)c1
T/C (dose: 75.0 mg/kg/injection, schedule: Q04DX003 (ip), vehicle: saline with Tween-80): 103 % of control
T/C (dose: 150.0 mg/kg/injection, schedule: Q04DX003 (ip), vehicle: saline with Tween-80): 101 % of control
T/C (dose: 300.0 mg/kg/injection, schedule: Q04DX003 (ip), vehicle: saline with Tween-80): 92 % of control

c1ccc(-c2nn(-c3ccccc3)[n+](-c3ccccc3-c3ccccc3)n2)cc1
T/C (dose: 4.0 mg/kg/injection, schedule: Q01DX015 (ip), vehicle: carboxymethylcellulose (CMC)): 98 % of control
T/C (dose: 8.0 mg/kg/injection, schedule: Q01DX015 (ip), vehicle: carboxymethylcellulose (CMC)): 93 % of control
T/C (dose: 16.0 mg/kg/injection, schedule: Q01DX015 (ip), vehicle: carboxymethylcellulose (CMC)): 94 % of control

COC(=O)C1=C(C(=O)OC)C2CC1C1OC21 (centres undefined)
T/C [13]: 96 % of control
T/C [14]: 98 % of control

CCN(CC)CCOC(=S)Nc1ccccc1
T/C (dose: 25.0 mg/kg/injection, schedule: Q01DX009 (ip), vehicle: saline): 100 % of control
T/C [17]: 109 % of control
T/C [13]: 96 % of control and 105 % of control

COc1ccc(C(=O)C(C)C(O)(C(F)(F)F)C(F)(F)F)cc1 (centres undefined)
T/C (dose: 75.0 mg/kg/injection, schedule: Q01DX009 (ip), vehicle: Klucel (hydroxypropylcellulose) (HPC)): 97 % of control
T/C [2]: 111 % of control
T/C (dose: 150.0 mg/kg/injection, schedule: Q01DX009 (ip), vehicle: Klucel (hydroxypropylcellulose) (HPC)): 101 % of control
T/C [3]: 100 % of control
T/C (dose: 300.0 mg/kg/injection, schedule: Q01DX009 (ip), vehicle: Klucel (hydroxypropylcellulose) (HPC)): 92 % of control
T/C [7]: 100 % of control

CN(C)c1ccc2cc3ccc(N(C)C)cc3nc2c1
T/C (dose: 6.25 mg/kg/injection, schedule: Q01DX009 (ip), vehicle: saline with Tween-80): 93 % of control
T/C (dose: 12.5 mg/kg/injection, schedule: Q01DX009 (ip), vehicle: saline with Tween-80): 98 % of control
T/C [1]: 93 % of control
T/C [15]: 98 % of control
T/C [16]: 98 % of control
